Laboratory results reported in ChEMBL document CHEMBL1201862, “PubChem BioAssay data set” (2004).
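Following 48 hours of exposure in 96-well plates, responses at five concentrations were used to interpolate endpoints linearly. At the GI50, growth is halved.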 Calls of active or inactive are those of the source. No stated cut-off is given here; in the data, active = GI50 up to about 1.1 µM and inactive = higher.

Assays:
Test in all cases: inhibition of tumour cell growth, NCI panel, 48 h
OVCAR-4 = system: OVCAR-4
OVCAR-3 = system: OVCAR-3
DU-145 = system: DU-145
HCT-15 = system: HCT-15
CAKI-1 = system: CAKI-1
MDA-MB-231 = system: MDA-MB-231
MCF7 = system: MCF7
SF-268 = system: SF-268
IGROV-1 = system: IGROV-1
UO-31 = system: UO-31
SW-620 = system: SW-620
OVCAR-8 = system: OVCAR-8
OVCAR-5 = system: OVCAR-5
K562 = system: K562
EKVX = system: EKVX
RPMI-8226 = system: RPMI-8226
PC-3 = system: PC-3
BT-549 = system: BT-549
NCI/ADR-RES = system: NCI/ADR-RES
TK-10 = system: TK-10
SK-MEL-5 = system: SK-MEL-5
HOP-92 = system: HOP-92
CCRF-CEM = system: CCRF-CEM
M14 = system: M14
MDA-N = system: MDA-N
HT-29 = system: HT-29
SK-MEL-28 = system: SK-MEL-28
SF-539 = system: SF-539
LOX IMVI = system: LOX IMVI
UACC-257 = system: UACC-257
NCI-H23 = system: NCI-H23
SR = system: SR
HOP-62 = system: HOP-62
SK-OV-3 = system: SK-OV-3
A549 = system: A549
SNB-19 = system: SNB-19
UACC-62 = system: UACC-62
COLO 205 = system: COLO 205
U-251 = system: U-251
HCT-116 = system: HCT-116
T47D = system: T47D
NCI-H460 = system: NCI-H460
Hs-578T = system: Hs-578T
A498 = system: A498
MDA-MB-435 = system: MDA-MB-435
786-0 = system: 786-0
KM12 = system: KM12
ACHN = system: ACHN
MOLT-4 = system: MOLT-4
SF-295 = system: SF-295
NCI-H522 = system: NCI-H522
NCI-H226 = system: NCI-H226
Malme-3M = system: Malme-3M
HCC 2998 = system: HCC 2998
SN12C = system: SN12C
RXF 393 = system: RXF 393
SK-MEL-2 = system: SK-MEL-2
HL-60 = system: HL-60
SNB-75 = system: SNB-75

In the case of `CC1(O)CC(C(F)(F)F)(C(F)(F)F)OC1=O` (stereo not given), the GI50 (OVCAR-4) is reported as > 10 µM (inactive), the GI50 (OVCAR-3) is reported as > 10 µM (inactive) and the GI50 (DU-145) is reported as > 10 µM (inactive). The GI50 (HCT-15) was greater than 10 µM, the GI50 (CAKI-1) was > 10 µM (inactive) and the GI50 (MDA-MB-231) was > 10 µM (inactive). For the same molecule, the GI50 (MCF7) was > 10 µM (inactive), the GI50 (SF-268) was > 10 µM (inactive) and the GI50 (IGROV-1) was > 10 µM (inactive). The GI50 (UO-31) was > 10 µM (inactive), the GI50 (SW-620) was > 10 µM (inactive) and the GI50 (OVCAR-8) was > 10 µM (inactive). For the same molecule, the GI50 (OVCAR-5) was > 10 µM (inactive), the GI50 (K562) was > 10 µM (inactive) and the GI50 (EKVX) was > 10 µM (inactive). For the same molecule, the GI50 (RPMI-8226) was > 10 µM (inactive), the GI50 (PC-3) was > 10 µM (inactive) and the GI50 (BT-549) was > 10 µM (inactive). The GI50 (NCI/ADR-RES) was > 10 µM (inactive), the GI50 (TK-10) was > 10 µM (inactive) and the GI50 (SK-MEL-5) was > 10 µM (inactive). The GI50 (HOP-92) was > 10 µM (inactive), the GI50 (CCRF-CEM) was > 10 µM (inactive) and the GI50 (M14) was > 10 µM (inactive). For the same molecule, the GI50 (MDA-N) was > 10 µM (inactive), the GI50 (HT-29) was > 10 µM (inactive) and the GI50 (SK-MEL-28) was > 10 µM (inactive). For the same molecule, the GI50 (SF-539) was > 10 µM (inactive), the GI50 (LOX IMVI) was > 10 µM (inactive) and the GI50 (UACC-257) was > 10 µM (inactive). For the same molecule, the GI50 (NCI-H23) was > 10 µM (inactive), the GI50 (SR) was > 10 µM (inactive) and the GI50 (HOP-62) was > 10 µM (inactive). The GI50 (SK-OV-3) was > 10 µM (inactive), the GI50 (A549) was > 10 µM (inactive) and the GI50 (SNB-19) was > 10 µM (inactive). The GI50 (UACC-62) was > 10 µM (inactive), the GI50 (COLO 205) was > 10 µM (inactive) and the GI50 (U-251) was > 10 µM (inactive). The GI50 (HCT-116) was > 10 µM (inactive), the GI50 (T47D) was > 10 µM (inactive) and the GI50 (NCI-H460) was > 10 µM (inactive). The GI50 (Hs-578T) was > 10 µM (inactive), the GI50 (A498) was > 10 µM (inactive) and the GI50 (MDA-MB-435) was > 10 µM (inactive). For the same molecule, the GI50 (786-0) was > 10 µM (inactive), the GI50 (KM12) was > 10 µM (inactive) and the GI50 (ACHN) was > 10 µM (inactive). For the same molecule, the GI50 (MOLT-4) was > 10 µM (inactive), the GI50 (SF-295) was > 10 µM (inactive) and the GI50 (NCI-H522) was > 10 µM (inactive). The GI50 (NCI-H226) was > 10 µM (inactive), the GI50 (Malme-3M) was > 10 µM (inactive) and the GI50 (HCC 2998) was > 10 µM (inactive). The GI50 (SN12C) was > 10 µM (inactive).
With `COc1ccc(C(=O)CC(c2ccccc2)[C@H]2C(c3ccc(OC)cc3)=Nc3c(nc(SC)n(C)c3=O)NC2c2ccccc2)cc1` (stereo not given in full) the GI50 (OVCAR-3) was > 100 µM (inactive), the GI50 (DU-145) was > 100 µM (inactive) and the GI50 (HCT-15) was greater than 100 µM. The GI50 (CAKI-1) was > 100 µM (inactive), the GI50 (MDA-MB-231) was > 100 µM (inactive) and the GI50 (MCF7) was > 100 µM (inactive). For the same molecule, the GI50 (SF-268) was > 100 µM (inactive), the GI50 (IGROV-1) was > 100 µM (inactive) and the GI50 (SW-620) was > 100 µM (inactive). The GI50 (OVCAR-5) was > 100 µM (inactive), the GI50 (K562) was > 100 µM (inactive) and the GI50 (EKVX) was > 100 µM (inactive). For the same molecule, the GI50 (RPMI-8226) was > 100 µM (inactive), the GI50 (PC-3) was > 100 µM (inactive) and the GI50 (BT-549) was > 100 µM (inactive). The GI50 (NCI/ADR-RES) was > 100 µM (inactive), the GI50 (TK-10) was > 100 µM (inactive) and the GI50 (SK-MEL-5) was 41.3 µM (inactive). For the same molecule, the GI50 (HOP-92) was > 100 µM (inactive), the GI50 (CCRF-CEM) was > 100 µM (inactive) and the GI50 (M14) was > 100 µM (inactive). The GI50 (MDA-N) was > 100 µM (inactive), the GI50 (HT-29) was > 100 µM (inactive) and the GI50 (SK-MEL-28) was > 100 µM (inactive). The GI50 (SF-539) was > 100 µM (inactive), the GI50 (LOX IMVI) was > 100 µM (inactive) and the GI50 (UACC-257) was > 100 µM (inactive). The GI50 (NCI-H23) was > 100 µM (inactive), the GI50 (SR) was > 100 µM (inactive) and the GI50 (HOP-62) was > 100 µM (inactive). For the same molecule, the GI50 (SK-OV-3) was > 100 µM (inactive), the GI50 (A549) was > 100 µM (inactive) and the GI50 (SNB-19) was > 100 µM (inactive). The GI50 (UACC-62) was > 100 µM (inactive), the GI50 (COLO 205) was > 100 µM (inactive) and the GI50 (U-251) was > 100 µM (inactive). The GI50 (HCT-116) was 89.7 µM (inactive), the GI50 (T47D) was > 100 µM (inactive) and the GI50 (NCI-H460) was > 100 µM (inactive). For the same molecule, the GI50 (Hs-578T) was > 100 µM (inactive), the GI50 (A498) was > 100 µM (inactive) and the GI50 (RXF 393) was > 100 µM (inactive). For the same molecule, the GI50 (MDA-MB-435) was > 100 µM (inactive), the GI50 (786-0) was > 100 µM (inactive) and the GI50 (KM12) was > 100 µM (inactive). For the same molecule, the GI50 (SK-MEL-2) was > 100 µM (inactive), the GI50 (MOLT-4) was > 100 µM (inactive) and the GI50 (SF-295) was > 100 µM (inactive). For the same molecule, the GI50 (NCI-H522) was > 100 µM (inactive), the GI50 (NCI-H226) was > 100 µM (inactive) and the GI50 (HCC 2998) was > 100 µM (inactive). The GI50 (SN12C) was > 100 µM (inactive).
In the case of `Cc1c2cccc-2ccc2c1[nH]c1ccccc12`, the GI50 (OVCAR-4) is reported as 2.23 µM (inactive), the GI50 (OVCAR-3) is reported as 2.47 µM (inactive) and the GI50 (DU-145) is reported as 4.55 µM (inactive). For the same molecule, the GI50 (HCT-15) was 2.58 µM, the GI50 (CAKI-1) was 6.31 µM (inactive) and the GI50 (MDA-MB-231) was 1.76 µM (inactive). For the same molecule, the GI50 (MCF7) was 3.06 µM (inactive), the GI50 (SF-268) was 2.04 µM (inactive) and the GI50 (IGROV-1) was 2 µM (inactive). The GI50 (UO-31) was 1.63 µM (inactive), the GI50 (HL-60) was 3.1 µM (inactive) and the GI50 (SW-620) was 2.36 µM (inactive). The GI50 (OVCAR-8) was 2.54 µM (inactive), the GI50 (OVCAR-5) was 2.12 µM (inactive) and the GI50 (K562) was 2.94 µM (inactive). For the same molecule, the GI50 (EKVX) was 1.45 µM (inactive), the GI50 (RPMI-8226) was 2.43 µM (inactive) and the GI50 (PC-3) was 1.76 µM (inactive). The GI50 (BT-549) was 3.24 µM (inactive), the GI50 (NCI/ADR-RES) was 3.34 µM (inactive) and the GI50 (TK-10) was 2.32 µM (inactive). The GI50 (SK-MEL-5) was 1.79 µM (inactive), the GI50 (HOP-92) was 2.83 µM (inactive) and the GI50 (CCRF-CEM) was 1.27 µM (inactive). For the same molecule, the GI50 (M14) was 1.73 µM (inactive), the GI50 (MDA-N) was 1.97 µM (inactive) and the GI50 (HT-29) was 3.78 µM (inactive). The GI50 (SK-MEL-28) was 1.75 µM (inactive), the GI50 (SF-539) was 1.81 µM (inactive) and the GI50 (LOX IMVI) was 2.55 µM (inactive). For the same molecule, the GI50 (UACC-257) was 1.68 µM (inactive), the GI50 (NCI-H23) was 2.77 µM (inactive) and the GI50 (SR) was 3.05 µM (inactive). For the same molecule, the GI50 (HOP-62) was 3.49 µM (inactive), the GI50 (SK-OV-3) was 3.23 µM (inactive) and the GI50 (A549) was 2.22 µM (inactive). For the same molecule, the GI50 (SNB-19) was 2.7 µM (inactive), the GI50 (UACC-62) was 1.91 µM (inactive) and the GI50 (COLO 205) was 1.89 µM (inactive). For the same molecule, the GI50 (U-251) was 1.66 µM (inactive), the GI50 (HCT-116) was 2.12 µM (inactive) and the GI50 (T47D) was 2.54 µM (inactive). The GI50 (NCI-H460) was 1.85 µM (inactive), the GI50 (Hs-578T) was 2.34 µM (inactive) and the GI50 (SNB-75) was 2.14 µM (inactive). The GI50 (A498) was 13.6 µM (inactive), the GI50 (RXF 393) was 3.21 µM (inactive) and the GI50 (MDA-MB-435) was 2.27 µM (inactive). The GI50 (786-0) was 2.81 µM (inactive), the GI50 (KM12) was 2.34 µM (inactive) and the GI50 (SK-MEL-2) was 1.8 µM (inactive). For the same molecule, the GI50 (ACHN) was 1.77 µM (inactive), the GI50 (MOLT-4) was 3.57 µM (inactive) and the GI50 (SF-295) was 2.38 µM (inactive). The GI50 (NCI-H522) was 1.93 µM (inactive), the GI50 (NCI-H226) was 1.97 µM (inactive) and the GI50 (Malme-3M) was 1.89 µM (inactive). For the same molecule, the GI50 (SN12C) was 2.34 µM (inactive).
